Assay results as given in ChEMBL document CHEMBL1671617, “Correlation of antimicrobial resistance with beta-lactamases, the OmpA-like porin, and efflux pumps in clinical isolates of Acinetobacter baumannii endemic to New York City” (2008).
In brackets after ≈: the same amount, converted by molar mass.

How the values were obtained:
Format in all cases: functional
[1] = system: Acinetobacter baumannii; assay: Antimicrobial activity against Acinetobacter baumannii alpha clonal group isolate 3 expressing ampC, ompA, adeB, adeM, aacC1, aadA1 by Etest method
[2] = system: Acinetobacter baumannii; assay: Antimicrobial activity against ISAba1 linked with the blaOXA-51-type beta-lactamase harboring Acinetobacter baumannii beta clonal group isolate 16 expressing ompA, adeB, adeM, aacA4, blaSHV-5 by Etest method
[3] = system: Acinetobacter baumannii; assay: Antimicrobial activity against Acinetobacter baumannii alpha clonal group isolate 4 expressing ampC, ompA, adeB, adeM, aacC1, aadA1 by Etest method
[4] = system: Acinetobacter baumannii; assay: Antimicrobial activity against ISAba1 linked with the blaOXA-51-type beta-lactamase harboring Acinetobacter baumannii alpha clonal group isolate 8 expressing ampC, ompA, adeB, adeM, aacC1, aadA1 by Etest method
[5] = system: Acinetobacter baumannii; assay: Antimicrobial activity against ISAba1 linked with the blaOXA-51-type beta-lactamase harboring Acinetobacter baumannii zeta clonal group isolate 22 expressing ampC, ompA, adeB, adeM, aadA1, aacA4, aacC2, blaSHV-5 by Etest method
[6] = system: Acinetobacter baumannii; assay: Antimicrobial activity against Acinetobacter baumannii nu clonal group isolate 34 expressing ampC, ompA, adeB, adeM by Etest method
[7] = system: Acinetobacter baumannii; assay: Antimicrobial activity against Acinetobacter baumannii alpha clonal group isolate 5 expressing ampC, ompA, adeB, adeM, aacC1, aadA1 by Etest method
[8] = system: Acinetobacter baumannii; assay: Antimicrobial activity against ISAba1 linked with the blaOXA-51-type beta-lactamase harboring Acinetobacter baumannii alpha clonal group isolate 1 expressing ampC, ompA, adeB, adeM by Etest method
[9] = system: Acinetobacter baumannii; assay: Antimicrobial activity against ISAba1 linked with the blaOXA-51-type beta-lactamase harboring Acinetobacter baumannii zeta clonal group isolate 21 expressing ampC, ompA, adeB, adeM, aacC2, blaSHV-5 by Etest method
[10] = system: Acinetobacter baumannii; assay: Antimicrobial activity against ISAba1 linked with the blaOXA-51-type beta-lactamase harboring Acinetobacter baumannii beta clonal group isolate 14 expressing ompA, adeB, adeM, aacA4, blaSHV-5 by Etest method
[11] = system: Acinetobacter baumannii; assay: Antimicrobial activity against ISAba1 linked with the blaOXA-51-type beta-lactamase harboring Acinetobacter baumannii zeta clonal group isolate 20 expressing ampC, ompA, adeB, adeM, aacC2 by Etest method
[12] = system: Acinetobacter baumannii; assay: Antimicrobial activity against Acinetobacter baumannii nu clonal group isolate 33 expressing ampC, ompA, adeB, adeM by Etest method
[13] = system: Acinetobacter baumannii; assay: Antimicrobial activity against Acinetobacter baumannii unique clonal group isolate 38 expressing ampC, ompA, adeB, adeM by Etest method
[14] = system: Acinetobacter baumannii; assay: Antimicrobial activity against ISAba1 linked with the blaOXA-51-type beta-lactamase harboring Acinetobacter baumannii lambda clonal group isolate 30 expressing ampC, ompA, adeB, adeM, aadB, aadA1 by Etest method
[15] = system: Acinetobacter baumannii; assay: Antimicrobial activity against Acinetobacter baumannii unique clonal group isolate 37 expressing ampC, ompA, adeB, adeM by Etest method
[16] = system: Acinetobacter baumannii; assay: Antimicrobial activity against ISAba1 linked with the blaOXA-51-type beta-lactamase harboring Acinetobacter baumannii zeta clonal group isolate 23 expressing ampC, ompA, adeB, adeM, aadA1, aacA4, aacC2, aphA6 by Etest method
[17] = system: Acinetobacter baumannii; assay: Antimicrobial activity against Acinetobacter baumannii nu clonal group isolate 31 expressing ampC, ompA, adeB, adeM, aadB, aadA2 by Etest method
[18] = system: Acinetobacter baumannii; assay: Antimicrobial activity against ISAba1 linked with the blaOXA-51-type beta-lactamase harboring Acinetobacter baumannii beta clonal group isolate 15 expressing ompA, adeB, adeM, aacA4, blaSHV-5 by Etest method
[19] = system: Acinetobacter baumannii; assay: Antimicrobial activity against ISAba1 linked with the blaOXA-51-type beta-lactamase harboring Acinetobacter baumannii lambda clonal group isolate 28 expressing ampC, ompA, adeM, aadB, aadA1 by Etest method
[20] = system: Acinetobacter baumannii; assay: Antimicrobial activity against Acinetobacter baumannii nu clonal group isolate 32 expressing ampC, ompA, adeB, adeM, aadB, aadA2 by Etest method
[21] = system: Acinetobacter baumannii; assay: Antimicrobial activity against ISAba1 linked with the blaOXA-51-type beta-lactamase harboring Acinetobacter baumannii unique clonal group isolate 40 expressing ampC, ompA, adeB, adeM, aadA1, aacA4, aacC2, blaSHV-5 by Etest method
[22] = system: Acinetobacter baumannii; assay: Antimicrobial activity against ISAba1 linked with the blaOXA-51-type beta-lactamase harboring Acinetobacter baumannii zeta clonal group isolate 25 expressing ampC, ompA, adeB, adeM, aadA1, aacA4, aacC2, blaSHV-5 by Etest method
[23] = system: Acinetobacter baumannii; assay: Antimicrobial activity against ISAba1 linked with the blaOXA-51-type beta-lactamase harboring Acinetobacter baumannii alpha clonal group isolate 6 expressing ampC, ompA, adeB, adeM, aacC1, aadA1 by Etest method
[24] = system: Acinetobacter baumannii; assay: Antimicrobial activity against ISAba1 linked with the blaOXA-51-type beta-lactamase harboring Acinetobacter baumannii zeta clonal group isolate 26 expressing ampC, ompA, adeB, adeM, aadA1, aacA4, aacC2, blaSHV-5 by Etest method
[25] = system: Acinetobacter baumannii; assay: Antimicrobial activity against ISAba1 linked with the blaOXA-51-type beta-lactamase harboring Acinetobacter baumannii beta clonal group isolate 9 expressing ampC, ompA, adeB, adeM by Etest method
[26] = system: Acinetobacter baumannii; assay: Antimicrobial activity against Acinetobacter baumannii alpha clonal group isolate 2 expressing ampC, ompA, adeB, adeM, aacC1, aadA1 by Etest method
[27] = system: Acinetobacter baumannii; assay: Antimicrobial activity against ISAba1 linked with the blaOXA-51-type beta-lactamase harboring Acinetobacter baumannii alpha clonal group isolate 7 expressing ampC, ompA, adeB, adeM, blaSHV-5 by Etest method
[28] = system: Acinetobacter baumannii; assay: Antimicrobial activity against Acinetobacter baumannii eta clonal group isolate 36 expressing ampC, ompA, adeB, adeM by Etest method
[29] = system: Acinetobacter baumannii; assay: Antimicrobial activity against ISAba1 linked with the blaOXA-51-type beta-lactamase harboring Acinetobacter baumannii zeta clonal group isolate 24 expressing ampC, ompA, adeB, adeM, aadA1, aacA4, aacC2, blaSHV-5 by Etest method
[30] = system: Acinetobacter baumannii; assay: Antimicrobial activity against ISAba1 linked with the blaOXA-51-type beta-lactamase harboring Acinetobacter baumannii beta clonal group isolate 13 expressing ompA, adeB, adeM, aacA4, blaSHV-5 by Etest method
[31] = system: Acinetobacter baumannii; assay: Antimicrobial activity against ISAba1 linked with the blaOXA-51-type beta-lactamase harboring Acinetobacter baumannii beta clonal group isolate 12 expressing ompA, adeB, adeM, aacA4, aacC2, blaSHV-5 by Etest method
[32] = system: Acinetobacter baumannii; assay: Antimicrobial activity against Acinetobacter baumannii eta clonal group isolate 35 expressing ampC, ompA, adeB, adeM by Etest method
[33] = system: Acinetobacter baumannii; assay: Antimicrobial activity against ISAba1 linked with the blaOXA-51-type beta-lactamase harboring Acinetobacter baumannii lambda clonal group isolate 29 expressing ampC, ompA, adeM, aadB, aadA1 by Etest method
[34] = system: Acinetobacter baumannii; assay: Antimicrobial activity against ISAba1 linked with the blaOXA-51-type beta-lactamase harboring Acinetobacter baumannii beta clonal group isolate 10 expressing ompA, adeB, adeM, aacA4, blaSHV-5 by Etest method
[35] = system: Acinetobacter baumannii; assay: Antimicrobial activity against Acinetobacter baumannii unique clonal group isolate 39 expressing ampC, ompA, adeM by Etest method
[36] = system: Acinetobacter baumannii; assay: Antimicrobial activity against ISAba1 linked with the blaOXA-51-type beta-lactamase harboring Acinetobacter baumannii zeta clonal group isolate 19 expressing ampC, ompA, adeB, adeM, aacC2 by Etest method
[37] = system: Acinetobacter baumannii; assay: Antimicrobial activity against ISAba1 linked with the blaOXA-51-type beta-lactamase harboring Acinetobacter baumannii beta clonal group isolate 18 expressing ompA, adeB, adeM, aacA4, blaSHV-5 by Etest method
[38] = system: Acinetobacter baumannii; assay: Antimicrobial activity against ISAba1 linked with the blaOXA-51-type beta-lactamase harboring Acinetobacter baumannii beta clonal group isolate 11 expressing ompA, adeB, adeM, blaSHV-5 by Etest method
[39] = system: Acinetobacter baumannii; assay: Antimicrobial activity against Acinetobacter baumannii lambda clonal group isolate 27 expressing ampC, ompA, adeB, adeM, aadB, aadA1 by Etest method
[40] = system: Acinetobacter baumannii; assay: Antimicrobial activity against ISAba1 linked with the blaOXA-51-type beta-lactamase harboring Acinetobacter baumannii beta clonal group isolate 17 expressing ompA, adeB, adeM, aacA4, blaSHV-5 by Etest method

How did the MIC [1] turn out when `C[C@@H](O)[C@H]1C(=O)N2C(C(=O)O)=C(SCCNC=N)C[C@H]12` [IMIPENEM ANHYDROUS] was run?
The MIC was 0.38 µg/mL (≈ 1.27 µM).

And the MIC [2]?
The MIC was greater than 16 µg/mL.

And the MIC [3]?
The MIC was 0.38 µg/mL (≈ 1.27 µM).

What about the MIC [4] of the same molecule?
The MIC was 6 µg/mL (≈ 20 µM).

What about the MIC [5] of the same molecule?
The MIC was 16 µg/mL (≈ 53.4 µM).

And the MIC [6]?
The MIC was 0.25 µg/mL (≈ 0.835 µM).

And the MIC [7]?
The MIC was 0.38 µg/mL (≈ 1.27 µM).

And the MIC [8]?
The MIC was 2 µg/mL (≈ 6.68 µM).

What about the MIC [9] of the same molecule?
The MIC was 6 µg/mL (≈ 20 µM).

What about the MIC [10] of the same molecule?
Its MIC is greater than 16 µg/mL.

What about the MIC [11] of the same molecule?
Its MIC is 1 µg/mL (≈ 3.34 µM).

And the MIC [12]?
The MIC was 0.25 µg/mL (≈ 0.835 µM).

And the MIC [13]?
The MIC was 0.19 µg/mL (≈ 0.635 µM).

And the MIC [14]?
Its MIC is 8 µg/mL (≈ 26.7 µM).

What about the MIC [15] of the same molecule?
Its MIC is 0.5 µg/mL (≈ 1.67 µM).

And the MIC [16]?
Its MIC is greater than 32 µg/mL.

What about the MIC [17] of the same molecule?
Its MIC is 0.25 µg/mL (≈ 0.835 µM).

What about the MIC [18] of the same molecule?
Its MIC is greater than 16 µg/mL.

And the MIC [19]?
Its MIC is 16 µg/mL (≈ 53.4 µM).

What about the MIC [20] of the same molecule?
Its MIC is 0.25 µg/mL (≈ 0.835 µM).

And the MIC [21]?
Its MIC is greater than 32 µg/mL.

What about the MIC [22] of the same molecule?
Its MIC is greater than 1.5 µg/mL.

What about the MIC [23] of the same molecule?
The MIC was 3 µg/mL (≈ 10 µM).

What about the MIC [24] of the same molecule?
The MIC was greater than 1.5 µg/mL.

And the MIC [25]?
The MIC was 12 µg/mL (≈ 40.1 µM).

And the MIC [26]?
The MIC was 0.38 µg/mL (≈ 1.27 µM).

What about the MIC [27] of the same molecule?
The MIC was 4 µg/mL (≈ 13.4 µM).

And the MIC [28]?
The MIC was 0.25 µg/mL (≈ 0.835 µM).

What about the MIC [29] of the same molecule?
Its MIC is greater than 1.5 µg/mL.

And the MIC [30]?
Its MIC is greater than 16 µg/mL.

And the MIC [31]?
Its MIC is 32 µg/mL (≈ 107 µM).

And the MIC [32]?
The MIC was 0.25 µg/mL (≈ 0.835 µM).

What about the MIC [33] of the same molecule?
The MIC was 16 µg/mL (≈ 53.4 µM).

And the MIC [34]?
The MIC was 16 µg/mL (≈ 53.4 µM).

And the MIC [35]?
Its MIC is 0.25 µg/mL (≈ 0.835 µM).

What about the MIC [36] of the same molecule?
Its MIC is 1 µg/mL (≈ 3.34 µM).

What about the MIC [37] of the same molecule?
Its MIC is 12 µg/mL (≈ 40.1 µM).

What about the MIC [38] of the same molecule?
Its MIC is greater than 32 µg/mL.

What about the MIC [39] of the same molecule?
The MIC was 4 µg/mL (≈ 13.4 µM).

What about the MIC [40] of the same molecule?
The MIC was greater than 16 µg/mL.
